Columns and labels:
[1] = tested on: kidney-yang deficiency rats; assay: Body weight, organ weight and routine indicators in hydrocortisone-induced kidney-yang deficiency rat model; assay type: in vivo, SD rats; conditions: HCT 10 d + 4.4 mg/kg sildenafil 10 d
Experimental: SD rats were randomly divided into 5 groups with 10 rats in each group. The SD rats were fed with 25 mg/kg hydrocortisone (HCT) for 10 days to construct a kidney-yang deficiency model, and then gave different concentrations of the CYCSE for 10 days. Specific groups were as follows: control group (distilled water 20 d); kidney-yang deficiency group (HCT 10 d+distilled water 10 […] low-concentration group (HCT 10 d+60 mg/kg […] high-concentration group (HCT 10 d+80 mg/kg […]); sildenafil group (HCT 10 d+4.4 mg/kg sildenafil 10 d). After treatment, the rats were anesthetized by intraperitoneal injection of 3% sodium pentobarbital.

NO/cGMP signal pathway = assay: ELISA of iNOS and cGMP in kidney-yang deficiency rats; assay type: in vivo, SD rats; conditions: CYCSE 60, 80 mg/kg; sildenafil 4.4 mg/kg; vs model group
Experimental: SD rats were randomly divided into 5 groups with 10 rats in each group. The SD rats were fed with 25 mg/kg hydrocortisone (HCT) for 10 days to construct a kidney-yang deficiency model, and then gave different concentrations of the CYCSE for 10 days. Specific groups were as follows: control group (distilled water 20 d); kidney-yang deficiency group (HCT 10 d+distilled water 10 […] low-concentration group (HCT 10 d+60 mg/kg […] high-concentration group (HCT 10 d+80 mg/kg […]); sildenafil group (HCT 10 d+4.4 mg/kg sildenafil 10 d). After treatment, the rats were anesthetized by intraperitoneal injection of 3% sodium pentobarbital. After the animal was anesthetized, blood was taken from the celiac artery and spontaneously coagulated for 25 min, and centrifuged at 2500 rpm/min for 10 min at 4° C. Supernatant was collected, namely serum samples. Contents of inducible nitric oxide synthase (iNOS), cyclic guanosine phosphate (cGMP) and testosterone in serum were detected according to instructions of rat ELISA test kit (BPRO, Shanghai, China).

[2] = tested on: testis tissue of kidney-yang deficiency rats; assay: Testicular tissue morphology (HE staining) in kidney-yang deficiency rats; assay type: in vivo, SD rats; conditions: HCT 10 d + 4.4 mg/kg sildenafil 10 d
Experimental: (§1) SD rats were randomly divided into 5 groups with 10 rats in each group. The SD rats were fed with 25 mg/kg hydrocortisone (HCT) for 10 days to construct a kidney-yang deficiency model, and then gave different concentrations of the CYCSE for 10 days. Specific groups were as follows: control group (distilled water 20 d); kidney-yang deficiency group (HCT 10 d+distilled water 10 d); CYCSE low-concentration group (HCT 10 d+60 mg/kg CYCSE 10 d); CYCSE high-concentration group (HCT 10 d+80 mg/kg CYCSE 10 d); sildenafil group (HCT 10 d+4.4 mg/kg sildenafil 10 d). After treatment, the rats were anesthetized by intraperitoneal injection of 3% sodium pentobarbital.
(§2) Cavernosum tissue and testicular tissue were fixed in 4% paraformaldehyde, and then embedded in paraffin and sectioned. Testicular tissue sections were stained with hematoxylin-eosin method and Masson method respectively. Cavernosum tissue sections were stained with hematoxylin-eosin method. The testicular tissue sections were processed by immunohistochemistry, and testicular leydig cells were labeled with 3β-HSD antibody. A Nikon posture microscope was used to take photos.

testicular leydig cells = assay: Immunohistochemistry of testicular leydig cells (3β-HSD); assay type: in vivo, SD rats; set-up: key: negative (−); weakly positive (+); ranging from negative (−) to weakly positive (+) to strong positive (+++); strong positive (+++); conditions: HCT 10 d + 4.4 mg/kg sildenafil 10 d
Experimental: as §1, §2

[3] = tested on: sperm of kidney-yang deficiency rats; assay: Sperm count and vitality check; assay type: in vivo, SD rats; conditions: HCT 10 d + 4.4 mg/kg sildenafil 10 d
Experimental: SD rats were randomly divided into 5 groups with 10 rats in each group. The SD rats were fed with 25 mg/kg hydrocortisone (HCT) for 10 days to construct a kidney-yang deficiency model, and then gave different concentrations of the CYCSE for 10 days. Specific groups were as follows: control group (distilled water 20 d); kidney-yang deficiency group (HCT 10 d+distilled water 10 […] low-concentration group (HCT 10 d+60 mg/kg […] high-concentration group (HCT 10 d+80 mg/kg […]); sildenafil group (HCT 10 d+4.4 mg/kg sildenafil 10 d). After treatment, the rats were anesthetized by intraperitoneal injection of 3% sodium pentobarbital. At the end of administration, epididymis samples were collected, excess tissue was removed, and blood was washed away with saline. The samples were fixed with tweezers, so as to cut a tail side of the epididymis longitudinally. The sperm was released in a petri dish containing PBS, and a hemocytometer was used to detect number and viability of the sperm under a microscope after waiting at room temperature for 10 minutes (sperm viability is divided into 4 levels: a) move forward rapidly in a straight line, b) move forward slowly in a straight line, c) move locally, d) no move).

[4] = tested on: primary cavernous endothelial cells (MCECs); assay: CCK8 cell viability of H2O2 damaged MCECs; assay type: cell-based, C57BL/6 mice; conditions: CYCSE 31.3 and 62.5 μg/mL or sildenafil 24 h, then 0.4 mM H2O2 2 h; dose-dependent
From the text: Eight-week-old C57BL/6J mice were sacrificed by cutting necks. Lower abdomen was sterilized with alcohol cotton balls, a lower abdomen incision was made with tweezers and surgical scissors, and the abdominal fascia and foreskin glands were peeled off to expose cavernosum tissue. The cavernosum tissue was separated with surgical scissors and placed in Hank's balanced salt solution containing 10% penicillin-streptomycin, and urethra and neurovascular bundles were removed under microscope to obtain clean cavernosum tissue. The obtain tissue was washed 3 times in PSB containing 10% penicillin-streptomycin, cut into small pieces of 1-2 mm^3 with surgical scissors, and placed at bottoms of a pre-cooled 24-well plate with 2 pieces in each well. Each well was supplemented with 200 μL Matrigel containing 50 ng/mL VEGF-A. The MCECs were cultured in a simulated 3D environment to induce proliferation. Then the MCECs were incubate in a 37° C., 5% CO2 incubator for 14 days until the bottoms of the wells were full. After aspirating the medium, 200 μL Dispase was added to each well for digestion in the incubator for 1 h, and an equal volume of 10 mM EDTA was added to stop the digestion. […] A microplate reader was used to measure absorbance at 450 nm and calculate the cell viability.

TM3 cells = assay: CCK8 cell viability of H2O2 damaged TM3 cells; assay type: cell-based, mouse; conditions: inhibitor pretreated 1 h, then 62.5 μg/mL CYCSE 24 h, 0.4 mM H2O2 2 h
Experimental: TM3 cells: purchased from Shanghai Cell Bank of the Chinese Academy of Sciences. The culture conditions are DMEM/F12+5% horse serum+2.5% fetal bovine serum+1% penicillin-streptomycin, 37° C., 5% CO2 incubator. TM3 cells were placed in a 96-well plate at a density of 3×10^4 cells/mL and divided into 6 groups: control group, H2O2 group, CYCSE group, ERK inhibitor ([…] group, AKT inhibitor ([…] group, and sildenafil group. After the two inhibitors were pretreated for 1 […] was added and processed for 24 h, and 0.4 mM H2O2 was added and processed for 2 h. After the two kinds of cells were treated separately, CCK8 was added and incubated at 37° C. for 1 h. A microplate reader was used to measure absorbance at 450 nm and calculate the cell viability.

[5] = tested on: ERK and AKT signal pathways in TM3 cells; assay: Western blot of p-ERK/ERK and p-AKT/AKT in TM3 cells; assay type: cell-based, mouse; conditions: H2O2 damaged TM3 cells
Experimental: TM3 cells: purchased from Shanghai Cell Bank of the Chinese Academy of Sciences. The culture conditions are DMEM/F12+5% horse serum+2.5% fetal bovine serum+1% penicillin-streptomycin, 37° C., 5% CO2 incubator. TM3 cells were placed in a 96-well plate at a density of 3×10^4 cells/mL and divided into 6 groups: control group, H2O2 group, CYCSE group, ERK inhibitor ([…] group, AKT inhibitor ([…] group, and sildenafil group. After the two inhibitors were pretreated for 1 […] was added and processed for 24 h, and 0.4 mM H2O2 was added and processed for 2 h. The TM3 cells or the MCECs were placed in 6-well plates, and the CYCSE was added to process for 24 h and 0.4 mM H2O2 to process for 2 h. The cells were collected and washed twice with PBS, wherein supernatant was discarded. The testicular tissue in liquid nitrogen was ground into powder. 200 μL of RIPM lysis solution (containing 1% PMSF) was added to each of the above samples to lyse on ice for 30 min and centrifuge at 12000 r for 10 min at 4° C., wherein supernatant was stored at -20° C. for later use. A BCA protein content detection kit was used to determine protein content in the samples and to adjust protein concentration to the same level. An equal volume of 2× loading buffer was added to an appropriate amount of the extracted protein sample, which was mixed well, boiled for 10 min, and stored at -20° C. […]

[6] = tested on: mice with oligoasthenospermia induced by tripterygium glycosides; conditions: cited from earlier work

## CCCc1nn(C)c2c(=O)[nH]c(-c3cc(S(=O)(=O)N4CCN(C)CC4)ccc3OCC)nc12 [Sildenafil]
[1]
  Body weight: 329.37 ± 10.82 g
  Epididymal weight: 0.85 ± 0.01 g
  Testicular weight: 3.03 ± 0.06 g
NO/cGMP signal pathway
  cGMP content: no significant difference between the sildenafil group and the high concentration group
  iNOS content: no significant difference between the sildenafil group and the high concentration group
[2]
  Diameter of seminiferous tubules: 357.61 ± 8.03 μm
  Germinal cell layer thickness: 72.50 ± 5.47 μm
Testicular leydig cells
  Immunoexpression of 3β-HSD (testicular leydig cells): +
[3]
  Sperm number: 4.63 ± 0.56^Δ *10^6/mL
[3]; grade a
  Sperm motility a: 17.67 ± 2.05^Δ %
[3]; grades a + b
  Sperm motility a + b: 37.67 ± 2.05^ΔΔ %
[4]
  Cell viability of oxidation-damaged MCECs: no salvage effect

## COc1cccc(-c2cc(=O)c3ccccc3o2)c1N [PD98059]
TM3 cells
  Effect of inhibitor on the protective effect of CYCSE on TM3 cell viability: significantly block the protective effect
[5]
  CYCSE-induced increase of p-ERK/ERK and p-AKT/AKT in TM3 cells with inhibitor: significantly down-regulated

## C[C@@H]1CC[C@@]2(OC1)O[C@H]1C[C@H]3[C@@H]4CC=C5C[C@@H](O)CC[C@]5(C)[C@H]4CC[C@]3(C)[C@H]1[C@@H]2C [diosgenin]
[6]
  Erectile latency: shorten
  MDA content in testicular tissues: reduce
  Organ coefficient of reproductive organs and immune organs: improve
  SOD activity in testicular tissues: increase
  Sperm quality: improve
